Assays:
[1] = system: PAT/Cry1F-transformed Arabidopsis (auxin-sensitive control); assay: Herbicide response of PAT/Cry1F transformed control Arabidopsis; format: in vivo, Arabidopsis thaliana; conditions: for % Injury 20-40% (individuals) / % Injury <20% (individuals) / % Injury >40% (individuals) / % Injury Ave: 14 DAT
Excerpt: (§1) T1 plants were then randomly assigned to various rates of 2,4-D. For Arabidopsis, 50 g ae/ha 2,4-D is an effective dose to distinguish sensitive plants from ones with meaningful levels of resistance. Elevated rates were also applied to determine relative levels of resistance (280, 560, 1120, or 2240 g ae/ha). Tables 11 and 12 show comparisons drawn to an aryloxyalkanoate herbicide resistance gene (AAD-12 (v1)) previously described in PCT/US2006/042133.
(§2) All auxin herbicide applications were made using the DeVilbiss sprayer as described above to apply 703 L/ha spray volume (0.4 ml solution/3-inch pot) or applied by track sprayer in a 187 L/ha spray volume. 2,4-D used was either technical grade (Sigma, St. Louis, Mo.) dissolved in DMSO and diluted in water (<1% DMSO final concentration) or the commercial dimethylamine salt formulation (456 g ae/L, NuFarm, St Joseph, Mo.). Dichlorprop used was commercial grade formulated as potassium salt of R-dichlorprop (600 g ai/L, AH Marks). As herbicide rates increased beyond 800 g ae/ha, the pH of the spray solution became exceedingly acidic, burning the leaves of young, tender Arabidopsis plants and complicating evaluation of the primary effects of the herbicides.
(§3) The first Arabidopsis transformations were conducted using AAD-13 (v1) (plant optimized gene). T1 transformants were first selected from the background of untransformed seed using a glufosinate selection scheme. Over 160,000 T1 seed were screened and 238 glufosinate resistant plants were identified (PAT gene), equating to a transformation/selection frequency of 0.15% which lies in the normal range of selection frequency of constructs where PAT+Liberty are used for selection. T1 plants selected above were subsequently transplanted to individual pots and sprayed with various rates of commercial aryloxyalkanoate herbicides. Table 11 compares the response of AAD-13 (v1) and control genes to impart 2,4-D resistance to Arabidopsis T1 transformants. Response is presented in terms of % visual injury 2 WAT. […] An arithmetic mean and standard deviation is presented for each treatment. The range in individual response is also indicated in the last column for each rate and transformation. PAT/Cry1F-transformed Arabidopsis served as an auxin-sensitive transformed control. The AAD-13 (v1) gene imparted herbicide resistance to individual T1 Arabidopsis plants. Within a given treatment, the level of plant response varied greatly and can be attributed to the fact each plant represents an independent transformation event. Of important note, at each 2,4-D rate tested, there were individuals that were unaffected while some were severely affected. […] At high rates the spray solution becomes highly acidic unless buffered therefore some of the injury may be attributed to the acidity of the spray solution. Arabidopsis grown mostly in the growth chamber has a very thin cuticle and severe burning effects can complicate testing at these elevated rates. Nonetheless, many individuals have survived 2,240 g ae/ha 2,4-D with little or no injury.
(§4) The ability of AAD-13 (v1) to provide resistance to other aryloxyalkanoate auxin herbicides in transgenic Arabidopsis was determined by foliar application of various substrates. T2 generation Arabidopsis seed was stratified, and sown into selection trays much like that of Arabidopsis (Example 6.4). A transformed-control line containing PAT and the insect resistance gene Cry1F was planted in a similar manner. Seedlings were transferred to individual 3-inch pots in the greenhouse. All plants were sprayed with the use of a track sprayer set at 187 L/ha. The plants were sprayed with a range of pyridyloxyacetate herbicides: 200-800 g ae/ha triclopyr (Garlon 3A, Dow AgroSciences) and 200-800 g ae/ha fluoroxypyr (Starane, Dow AgroSciences). […]

[2] = system: Homozygous AAD-12 (v1) gene T4 Arabidopsis plants; assay: Herbicide response of homozygous AAD-12 (v1) T4 Arabidopsis; format: in vivo, Arabidopsis thaliana; conditions: for % Injury 20-40% (individuals) / % Injury <20% (individuals) / % Injury >40% (individuals) / % Injury Ave: 14 DAT
Excerpt: as §1, §2, §3, §4

[3] = system: KY160 untransformed tobacco; assay: Herbicide response of untransformed KY160 tobacco; format: in vivo, Nicotiana tabacum; conditions: for % Injury 20-40% (individuals) / % Injury <20% (individuals) / % Injury >40% (individuals) / % Injury Ave: 2 WAT; for plant response to foliar applied auxinic herbicides (injury): 14 days after application
Excerpt: Surviving T1 plants were then randomly assigned to various rates of 2,4-D. For tobacco, 140 g ae/ha 2,4-D is an effective dose to distinguish sensitive plants from ones with meaningful levels of resistance. Elevated rates were also applied to determine relative levels of resistance (140, 560, or 2240 g ae/ha).
All auxin herbicide applications were applied by track sprayer in a 187 L/ha spray volume. 2,4-D used was the commercial dimethylamine salt formulation (456 g ae/L, NuFarm, St Joseph, Mo.). Some T1 individuals were subjected to alternative commercial herbicides instead of a phenoxy auxin. One point of interest was determining whether the pyridyloxyacetate auxin herbicides, triclopyr and fluoroxypyr, could be effectively degraded in planta. Herbicides were applied to T1 plants with use of a track sprayer in a 187 L/ha spray volume.
T1 transformants were first selected from the background of untransformed plants using a 2,4-D selection scheme. Table 15 compares the response of AAD-13 (v1) and control genes to impart 2,4-D resistance to tobacco T1 transformants. Response is presented in terms of % visual injury 2 WAT. […] An arithmetic mean and standard deviation is presented for each treatment. The range in individual response is also indicated in the last column for each rate and transformation. KY160 untransformed tobacco served as an auxin-sensitive control. The AAD-13 (v1) gene imparted herbicide resistance to individual T1 tobacco plants.
The ability of AAD-13 (v1) to provide resistance to other aryloxyalkanoate auxin herbicides in transgenic tobacco was determined by foliar application of various substrates. Extra T1 generation plants following the T1 progeny testing were sprayed with the use of a track sprayer set at 187 L/ha. The plants were sprayed with a range of pyridyloxyacetate herbicides: 140-1120 g ae/ha triclopyr (Garlon 3A, Dow AgroSciences) and 280-1120 g ae/ha fluoroxypyr (Starane, Dow AgroSciences). All applications were formulated in water. Each treatment was replicated 3 times. Plants were evaluated at 3 and 14 days after treatment.

CNC.O=C(O)COc1ccc(Cl)cc1Cl [2,4-D DMA]
% Injury 20-40% (individuals) ([1]; 280 g ae/ha postemergence): 0 | % Injury <20% (individuals) ([1]; 280 g ae/ha postemergence): 0 | % Injury >40% (individuals) ([1]; 280 g ae/ha postemergence): 20 | % Injury Ave ([1]; 280 g ae/ha postemergence): 100% | % Injury 20-40% (individuals) ([1]; 560 g ae/ha postemergence): 0 | % Injury <20% (individuals) ([1]; 560 g ae/ha postemergence): 0 | % Injury >40% (individuals) ([1]; 560 g ae/ha postemergence): 20 | % Injury Ave ([1]; 560 g ae/ha postemergence): 100% | % Injury 20-40% (individuals) ([1]; 1120 g ae/ha postemergence): 0 | % Injury <20% (individuals) ([1]; 1120 g ae/ha postemergence): 0 | % Injury >40% (individuals) ([1]; 1120 g ae/ha postemergence): 20 | % Injury Ave ([1]; 1120 g ae/ha postemergence): 100% | % Injury 20-40% (individuals) ([1]; 2240 g ae/ha postemergence): 0 | % Injury <20% (individuals) ([1]; 2240 g ae/ha postemergence): 0 | % Injury >40% (individuals) ([1]; 2240 g ae/ha postemergence): 20 | % Injury Ave ([1]; 2240 g ae/ha postemergence): 100% | % Injury 20-40% (individuals) ([2]; 280 g ae/ha postemergence): 0 | % Injury <20% (individuals) ([2]; 280 g ae/ha postemergence): 20 | % Injury >40% (individuals) ([2]; 280 g ae/ha postemergence): 0 | % Injury Ave ([2]; 280 g ae/ha postemergence): 0% | % Injury 20-40% (individuals) ([2]; 560 g ae/ha postemergence): 0 | % Injury <20% (individuals) ([2]; 560 g ae/ha postemergence): 20 | % Injury >40% (individuals) ([2]; 560 g ae/ha postemergence): 0 | % Injury Ave ([2]; 560 g ae/ha postemergence): 1% | % Injury 20-40% (individuals) ([2]; 1120 g ae/ha postemergence): 0 | % Injury <20% (individuals) ([2]; 1120 g ae/ha postemergence): 20 | % Injury >40% (individuals) ([2]; 1120 g ae/ha postemergence): 0 | % Injury Ave ([2]; 1120 g ae/ha postemergence): 2% | % Injury 20-40% (individuals) ([2]; 2240 g ae/ha postemergence): 3 | % Injury <20% (individuals) ([2]; 2240 g ae/ha postemergence): 16 | % Injury >40% (individuals) ([2]; 2240 g ae/ha postemergence): 1 | % Injury Ave ([2]; 2240 g ae/ha postemergence): 13% | % Injury 20-40% (individuals) ([3]; 140 g ae/ha postemergence): 0 | % Injury <20% (individuals) ([3]; 140 g ae/ha postemergence): 0 | % Injury >40% (individuals) ([3]; 140 g ae/ha postemergence): 3 | % Injury Ave ([3]; 140 g ae/ha postemergence): 80.0% | % Injury 20-40% (individuals) ([3]; 560 g ae/ha postemergence): 0 | % Injury <20% (individuals) ([3]; 560 g ae/ha postemergence): 0 | % Injury >40% (individuals) ([3]; 560 g ae/ha postemergence): 3 | % Injury Ave ([3]; 560 g ae/ha postemergence): 88.0% | % Injury 20-40% (individuals) ([3]; 2240 g ae/ha postemergence): 0 | % Injury <20% (individuals) ([3]; 2240 g ae/ha postemergence): 0 | % Injury >40% (individuals) ([3]; 2240 g ae/ha postemergence): 3 | % Injury Ave ([3]; 2240 g ae/ha postemergence): 92.0%

C[C@@H](Oc1ccc(Cl)cc1Cl)C(=O)O [R-dichloroprop, R-dichlorprop]
% Injury 20-40% (individuals) ([2]; 800 g ae/ha postemergence): 0 | % Injury <20% (individuals) ([2]; 800 g ae/ha postemergence): 0 | % Injury >40% (individuals) ([2]; 800 g ae/ha postemergence): 20 | % Injury Ave ([2]; 800 g ae/ha postemergence): 100%

Nc1c(Cl)c(F)nc(OCC(=O)O)c1Cl [fluoroxypyr]
Ave. % Injury 14DAT ([1]; 200 g ae/ha foliar-applied): 100% | Ave. % Injury 14DAT ([1]; 400 g ae/ha foliar-applied): 100% | Ave. % Injury 14DAT ([1]; 800 g ae/ha foliar-applied): 100% | Ave. % Injury 14DAT ([2]; 200 g ae/ha foliar-applied): 48% | Ave. % Injury 14DAT ([2]; 400 g ae/ha foliar-applied): 55% | Ave. % Injury 14DAT ([2]; 800 g ae/ha foliar-applied): 60% | plant response to foliar applied auxinic herbicides (injury) ([3]; 280 g ae/ha): 100.0 | plant response to foliar applied auxinic herbicides (injury) ([3]; 560 g ae/ha): 100.0 | plant response to foliar applied auxinic herbicides (injury) ([3]; 1120 g ae/ha): 100.0

O=C(O)COc1nc(Cl)c(Cl)cc1Cl [triclopyr]
Ave. % Injury 14DAT ([1]; 200 g ae/ha foliar-applied): 100% | Ave. % Injury 14DAT ([1]; 400 g ae/ha foliar-applied): 100% | Ave. % Injury 14DAT ([1]; 800 g ae/ha foliar-applied): 100% | Ave. % Injury 14DAT ([2]; 200 g ae/ha foliar-applied): 25% | Ave. % Injury 14DAT ([2]; 400 g ae/ha foliar-applied): 33% | Ave. % Injury 14DAT ([2]; 800 g ae/ha foliar-applied): 79% | plant response to foliar applied auxinic herbicides (injury) ([3]; 280 g ae/ha): 82.0 | plant response to foliar applied auxinic herbicides (injury) ([3]; 560 g ae/ha): 88.0 | plant response to foliar applied auxinic herbicides (injury) ([3]; 1120 g ae/ha): 92.0

— US9062284B2, “Uses and detection of herbicide resistance genes for resistance to aryloxyalkanoate herbicides” (Dow ArgoSciences LLC, priority 2007, dated 2015)
